Experimental data taken from patent publication US9669003B2, “Use of flavone and flavanone derivatives in preparation of sedative and hypnotic drugs” (priority 2012, dated 2017).
Marks after values point to notes of the source that are not given here.

Test system: Kunming mice
Experiment: Influence on hypnosis effect with pentobarbital sodium doses below the threshold (25 mg/kg i.p.)
Assay type: in vivo
Conditions: test drug 25 mg/kg intragastric single dose, pentobarbital sodium 25 mg/kg i.p. 60 min later, sleep observed in 30 min, n = 10
How it was run: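 Percentage of mice sleeping within 30 min after subthreshold pentobarbital sodium (25 mg/kg i.p.), defined by loss of righting reflex over 1 min, analysed by χ2. Compound in 0.5% CMC-Na given intragastrically at 25/50/100 mg/kg 60 min before; groups of 10 Kunming mice, both sexes.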

| SMILES | Number of sleeping animals | rate of sleeping (%) |
| --- | --- | --- |
| COc1ccc(O)cc1-c1cc(=O)c2c(O)cc(OC)c(OC)c2o1 [Example 12, 5,5′-dihydroxyl-7,8,2′-trimethoxyl-flavone] | 5 | 50** % |
| COc1ccc(-c2cc(=O)c3c(O)cc(OC)c(OC)c3o2)cc1O [Example 2, 5,3′-dihydroxyl-7,8,4′-trimethoxyl-flavone] | 5 | 50** % |
| COc1ccc(-c2cc(=O)c3c(O)cc(OC)c(OC)c3o2)c(OC)c1OC [Example 9, 5-hydroxyl-7,8,2′,3′,4′-penta methoxyl-flavone] | 6 | 60** % |

Same assay, conditions: test drug 50 mg/kg intragastric single dose, pentobarbital sodium 25 mg/kg i.p. 60 min later, sleep observed in 30 min, n = 10

| SMILES | Number of sleeping animals | rate of sleeping (%) |
| --- | --- | --- |
| COc1ccc(O)cc1-c1cc(=O)c2c(O)cc(OC)c(OC)c2o1 [Example 12, 5,5′-dihydroxyl-7,8,2′-trimethoxyl-flavone] | 8 | 80*** % |
| COc1ccc(-c2cc(=O)c3c(O)cc(OC)c(OC)c3o2)cc1O [Example 2, 5,3′-dihydroxyl-7,8,4′-trimethoxyl-flavone] | 6 | 60** % |
| COc1ccc(-c2cc(=O)c3c(O)cc(OC)c(OC)c3o2)c(OC)c1OC [Example 9, 5-hydroxyl-7,8,2′,3′,4′-penta methoxyl-flavone] | 7 | 70** % |

Same assay, conditions: test drug 100 mg/kg intragastric single dose, pentobarbital sodium 25 mg/kg i.p. 60 min later, sleep observed in 30 min, n = 10

| SMILES | Number of sleeping animals | rate of sleeping (%) |
| --- | --- | --- |
| COc1ccc(O)cc1-c1cc(=O)c2c(O)cc(OC)c(OC)c2o1 [Example 12, 5,5′-dihydroxyl-7,8,2′-trimethoxyl-flavone] | 8 | 80*** % |
| COc1ccc(-c2cc(=O)c3c(O)cc(OC)c(OC)c3o2)cc1O [Example 2, 5,3′-dihydroxyl-7,8,4′-trimethoxyl-flavone] | 7 | 70** % |
| COc1ccc(-c2cc(=O)c3c(O)cc(OC)c(OC)c3o2)c(OC)c1OC [Example 9, 5-hydroxyl-7,8,2′,3′,4′-penta methoxyl-flavone] | 8 | 80*** % |

Test system: Kunming mice
Experiment: Influence on autonomic activity of normal mice (ZIL-2 mice autonomic activity meter, counts within 10 min)
Assay type: in vivo
Conditions: intragastric, 25 mg/kg, 1 h after administration, x ± s, n = 10
How it was run: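 Activity counts during a 10-min window were taken at 1, 2 and 24 h after dosing in groups of 10 mixed-sex Kunming mice. Compounds were given in 0.5% CMC-Na at 25, 50 or 100 mg/kg. Statistics used Levene's homogeneity test, ANOVA and Dunnett's multiple comparisons.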

| SMILES | Times of activities in 1 h after drug administration/10 min |
| --- | --- |
| COc1ccc(O)cc1-c1cc(=O)c2c(O)cc(OC)c(OC)c2o1 [Example 12, 5,5′-dihydroxyl-7,8,2′-trimethoxyl-flavone] | 255.9 ± 39.8 /10 min |
| COc1ccc(-c2cc(=O)c3c(O)cc(OC)c(OC)c3o2)cc1O [Example 2, 5,3′-dihydroxyl-7,8,4′-trimethoxyl-flavone] | 320.1 ± 54.7 /10 min |
| COc1ccc(-c2cc(=O)c3c(O)cc(OC)c(OC)c3o2)c(OC)c1OC [Example 9, 5-hydroxyl-7,8,2′,3′,4′-penta methoxyl-flavone] | 258.4 ± 60.2 /10 min |

Same assay, conditions: intragastric, 25 mg/kg, 2 h after administration, x ± s, n = 10

| SMILES | Times of activities in 2 h after drug administration/10 min |
| --- | --- |
| COc1ccc(O)cc1-c1cc(=O)c2c(O)cc(OC)c(OC)c2o1 [Example 12, 5,5′-dihydroxyl-7,8,2′-trimethoxyl-flavone] | 284.2 ± 41.7 /10 min |
| COc1ccc(-c2cc(=O)c3c(O)cc(OC)c(OC)c3o2)cc1O [Example 2, 5,3′-dihydroxyl-7,8,4′-trimethoxyl-flavone] | 293.5 ± 40.8 /10 min |
| COc1ccc(-c2cc(=O)c3c(O)cc(OC)c(OC)c3o2)c(OC)c1OC [Example 9, 5-hydroxyl-7,8,2′,3′,4′-penta methoxyl-flavone] | 241.1 ± 34.1 /10 min |

Same assay, conditions: intragastric, 25 mg/kg, 24 h after administration, x ± s, n = 10

| SMILES | Times of activities in 24 h after drug administration/10 min |
| --- | --- |
| COc1ccc(O)cc1-c1cc(=O)c2c(O)cc(OC)c(OC)c2o1 [Example 12, 5,5′-dihydroxyl-7,8,2′-trimethoxyl-flavone] | 303.1 ± 69.1 /10 min |
| COc1ccc(-c2cc(=O)c3c(O)cc(OC)c(OC)c3o2)cc1O [Example 2, 5,3′-dihydroxyl-7,8,4′-trimethoxyl-flavone] | 302.7 ± 77.5 /10 min |
| COc1ccc(-c2cc(=O)c3c(O)cc(OC)c(OC)c3o2)c(OC)c1OC [Example 9, 5-hydroxyl-7,8,2′,3′,4′-penta methoxyl-flavone] | 314.2 ± 67.9 /10 min |

Same assay, conditions: intragastric, 50 mg/kg, 1 h after administration, x ± s, n = 10

| SMILES | Times of activities in 1 h after drug administration/10 min |
| --- | --- |
| COc1ccc(O)cc1-c1cc(=O)c2c(O)cc(OC)c(OC)c2o1 [Example 12, 5,5′-dihydroxyl-7,8,2′-trimethoxyl-flavone] | 179.5 ± 51.4 /10 min |
| COc1ccc(-c2cc(=O)c3c(O)cc(OC)c(OC)c3o2)cc1O [Example 2, 5,3′-dihydroxyl-7,8,4′-trimethoxyl-flavone] | 295.3 ± 41.8 /10 min |
| COc1ccc(-c2cc(=O)c3c(O)cc(OC)c(OC)c3o2)c(OC)c1OC [Example 9, 5-hydroxyl-7,8,2′,3′,4′-penta methoxyl-flavone] | 183.5 ± 45.9 /10 min |

Same assay, conditions: intragastric, 50 mg/kg, 2 h after administration, x ± s, n = 10

| SMILES | Times of activities in 2 h after drug administration/10 min |
| --- | --- |
| COc1ccc(O)cc1-c1cc(=O)c2c(O)cc(OC)c(OC)c2o1 [Example 12, 5,5′-dihydroxyl-7,8,2′-trimethoxyl-flavone] | 168.5 ± 54.3 /10 min |
| COc1ccc(-c2cc(=O)c3c(O)cc(OC)c(OC)c3o2)cc1O [Example 2, 5,3′-dihydroxyl-7,8,4′-trimethoxyl-flavone] | 254.2 ± 41.1 /10 min |
| COc1ccc(-c2cc(=O)c3c(O)cc(OC)c(OC)c3o2)c(OC)c1OC [Example 9, 5-hydroxyl-7,8,2′,3′,4′-penta methoxyl-flavone] | 194.3 ± 45.1 /10 min |

Same assay, conditions: intragastric, 50 mg/kg, 24 h after administration, x ± s, n = 10

| SMILES | Times of activities in 24 h after drug administration/10 min |
| --- | --- |
| COc1ccc(O)cc1-c1cc(=O)c2c(O)cc(OC)c(OC)c2o1 [Example 12, 5,5′-dihydroxyl-7,8,2′-trimethoxyl-flavone] | 317.9 ± 55.3 /10 min |
| COc1ccc(-c2cc(=O)c3c(O)cc(OC)c(OC)c3o2)cc1O [Example 2, 5,3′-dihydroxyl-7,8,4′-trimethoxyl-flavone] | 306.2 ± 90.6 /10 min |
| COc1ccc(-c2cc(=O)c3c(O)cc(OC)c(OC)c3o2)c(OC)c1OC [Example 9, 5-hydroxyl-7,8,2′,3′,4′-penta methoxyl-flavone] | 317.2 ± 80.9 /10 min |

Same assay, conditions: intragastric, 100 mg/kg, 1 h after administration, x ± s, n = 10

| SMILES | Times of activities in 1 h after drug administration/10 min |
| --- | --- |
| COc1ccc(O)cc1-c1cc(=O)c2c(O)cc(OC)c(OC)c2o1 [Example 12, 5,5′-dihydroxyl-7,8,2′-trimethoxyl-flavone] | 153.7 ± 48.4 /10 min |
| COc1ccc(-c2cc(=O)c3c(O)cc(OC)c(OC)c3o2)cc1O [Example 2, 5,3′-dihydroxyl-7,8,4′-trimethoxyl-flavone] | 281.3 ± 47.6 /10 min |
| COc1ccc(-c2cc(=O)c3c(O)cc(OC)c(OC)c3o2)c(OC)c1OC [Example 9, 5-hydroxyl-7,8,2′,3′,4′-penta methoxyl-flavone] | 129.0 ± 40.2 /10 min |

Same assay, conditions: intragastric, 100 mg/kg, 2 h after administration, x ± s, n = 10

| SMILES | Times of activities in 2 h after drug administration/10 min |
| --- | --- |
| COc1ccc(O)cc1-c1cc(=O)c2c(O)cc(OC)c(OC)c2o1 [Example 12, 5,5′-dihydroxyl-7,8,2′-trimethoxyl-flavone] | 135.9 ± 48.7 /10 min |
| COc1ccc(-c2cc(=O)c3c(O)cc(OC)c(OC)c3o2)cc1O [Example 2, 5,3′-dihydroxyl-7,8,4′-trimethoxyl-flavone] | 223.5 ± 45.7 /10 min |
| COc1ccc(-c2cc(=O)c3c(O)cc(OC)c(OC)c3o2)c(OC)c1OC [Example 9, 5-hydroxyl-7,8,2′,3′,4′-penta methoxyl-flavone] | 126.3 ± 39.8 /10 min |

Same assay, conditions: intragastric, 100 mg/kg, 24 h after administration, x ± s, n = 10

| SMILES | Times of activities in 24 h after drug administration/10 min |
| --- | --- |
| COc1ccc(O)cc1-c1cc(=O)c2c(O)cc(OC)c(OC)c2o1 [Example 12, 5,5′-dihydroxyl-7,8,2′-trimethoxyl-flavone] | 302.1 ± 89.0 /10 min |
| COc1ccc(-c2cc(=O)c3c(O)cc(OC)c(OC)c3o2)cc1O [Example 2, 5,3′-dihydroxyl-7,8,4′-trimethoxyl-flavone] | 311.4 ± 80.3 /10 min |
| COc1ccc(-c2cc(=O)c3c(O)cc(OC)c(OC)c3o2)c(OC)c1OC [Example 9, 5-hydroxyl-7,8,2′,3′,4′-penta methoxyl-flavone] | 323.5 ± 62.4 /10 min |

Test system: Kunming mice
Experiment: Influence on hypnosis effect with pentobarbital sodium doses at the threshold (50 mg/kg i.p.)
Assay type: in vivo
Conditions: 25 mg/kg intragastric single dose, pentobarbital sodium 50 mg/kg i.p. 60 min later, x ± s, n = 10
How it was run: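 Pentobarbital sodium (0.3%, 50 mg/kg i.p.) injected 60 min after a single intragastric dose (25, 50, 100 mg/kg, 0.5% CMC-Na vehicle) in Kunming mice, 10 per group, sexes balanced. Onset and length of sleep (righting reflex lost over 1 min) analysed by ANOVA; sleeping incidence by χ2 test.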

| SMILES | duration of sleep [min] | time to sleep [min] |
| --- | --- | --- |
| COc1ccc(O)cc1-c1cc(=O)c2c(O)cc(OC)c(OC)c2o1 [Example 12, 5,5′-dihydroxyl-7,8,2′-trimethoxyl-flavone] | 22.71 ± 26.17 | 5.43 ± 2.05 |
| COc1ccc(-c2cc(=O)c3c(O)cc(OC)c(OC)c3o2)cc1O [Example 2, 5,3′-dihydroxyl-7,8,4′-trimethoxyl-flavone] | 35.56 ± 15.89 | 6.61 ± 2.22 |
| COc1ccc(-c2cc(=O)c3c(O)cc(OC)c(OC)c3o2)c(OC)c1OC [Example 9, 5-hydroxyl-7,8,2′,3′,4′-penta methoxyl-flavone] | 49.14 ± 16.71 | 3.31 ± 1.81 |

Same assay, conditions: 50 mg/kg intragastric single dose, pentobarbital sodium 50 mg/kg i.p. 60 min later, x ± s, n = 10

| SMILES | duration of sleep [min] | time to sleep [min] |
| --- | --- | --- |
| COc1ccc(O)cc1-c1cc(=O)c2c(O)cc(OC)c(OC)c2o1 [Example 12, 5,5′-dihydroxyl-7,8,2′-trimethoxyl-flavone] | 28.68 ± 27.56 | 5.01 ± 2.00 |
| COc1ccc(-c2cc(=O)c3c(O)cc(OC)c(OC)c3o2)cc1O [Example 2, 5,3′-dihydroxyl-7,8,4′-trimethoxyl-flavone] | 39.23 ± 23.45 | 4.95 ± 2.23 |
| COc1ccc(-c2cc(=O)c3c(O)cc(OC)c(OC)c3o2)c(OC)c1OC [Example 9, 5-hydroxyl-7,8,2′,3′,4′-penta methoxyl-flavone] | 72.31 ± 21.42 | 2.91 ± 1.52 |

Same assay, conditions: 100 mg/kg intragastric single dose, pentobarbital sodium 50 mg/kg i.p. 60 min later, x ± s, n = 10

| SMILES | duration of sleep [min] | time to sleep [min] |
| --- | --- | --- |
| COc1ccc(O)cc1-c1cc(=O)c2c(O)cc(OC)c(OC)c2o1 [Example 12, 5,5′-dihydroxyl-7,8,2′-trimethoxyl-flavone] | 38.55 ± 23.27 | 4.25 ± 1.16 |
| COc1ccc(-c2cc(=O)c3c(O)cc(OC)c(OC)c3o2)cc1O [Example 2, 5,3′-dihydroxyl-7,8,4′-trimethoxyl-flavone] | 53.55 ± 22.04 | 3.92 ± 1.12 |
| COc1ccc(-c2cc(=O)c3c(O)cc(OC)c(OC)c3o2)c(OC)c1OC [Example 9, 5-hydroxyl-7,8,2′,3′,4′-penta methoxyl-flavone] | 85.16 ± 21.97 | 2.12 ± 1.12 |
